Test results: ChEMBL document CHEMBL5316302, “Deciphering Nonbioavailable Substructures Improves the Bioavailability of Antidepressants by Serotonin Transporter” (J Med Chem, 2023)
The source made the active and inactive calls. The calls are words filed in the database; no cut-off is given here.

Tests used:
[1] = target: Sodium-dependent serotonin transporter (Homo sapiens, UniProt P31645); test: Inhibition of SERT receptor (unknown origin)
[2] = Drug concentration in Sprague-Dawley rat brain at 10 mg/kg, ip measured at 15 min by LC/MS-MS analysis; format: ADME, organism-based; conditions: read-out: Ct
[3] = AUC (0 to t) in Sprague-Dawley rat at 1 mg/kg, iv measured upto 24 hrs by LC-MS/MS analysis; format: ADME, organism-based; set-up: time < 24 hrs, dose 1 mg/kg, route iv; conditions: in vivo; for AUCt: 24 h
[4] = Oral bioavailability in Sprague-Dawley rat at 2.5 mg/kg measured upto 24 hrs by LC-MS/MS analysis; format: ADME, organism-based; conditions: in vivo
[5] = Ratio of drug concentration in brain to plasma in Sprague-Dawley rat at 10 mg/kg, ip measured at 60 min by LC-MS/MS analysis; format: ADME, organism-based; conditions: read-out: BPR
[6] = AUC (0 to t) in Beagle dog at 1 mg/kg, iv measured upto 24 hrs by LC-MS/MS analysis; format: ADME, organism-based, Canis lupus familiaris; set-up: dose 1 mg/kg, time < 24 hrs, route iv; conditions: in vivo
[7] = Cmax in Sprague-Dawley rat at 2.5 mg/kg, po measured upto 24 hrs by LC-MS/MS analysis; format: ADME, organism-based; set-up: dose 2.5 mg/kg, time < 24 hrs, route po; conditions: in vivo
Hypothalamus [8] = test: Inhibition of PCA-induced serotonin depletion in Sprague-Dawley rat hypothalamus assessed as recovery of 5-HT concentration at 10 mg/kg, ip by HPLC analysis (Rvb= 200 ng/g); format: functional
Rattus norvegicus [9] = test: Antidepressant activity in Sprague-Dawley rat assessed as reduction in immobility time at 3 mg/kg ip measured after 15 mins by forced swim test; format: functional; conditions: 0.25 h
[10] = Volume of distribution at steady state in Sprague-Dawley rat at 1 mg/kg, iv measured upto 24 hrs by LC-MS/MS analysis; format: ADME, organism-based; conditions: in vivo, read-out: Vdss
Hypothalamus [11] = test: Inhibition of PCA-induced serotonin depletion in Sprague-Dawley rat hypothalamus assessed as recovery of 5-HT concentration at 3 mg/kg, ip by HPLC analysis; format: functional, organism-based
[12] = Half life in Sprague-Dawley rat at 2.5 mg/kg, po measured upto 24 hrs by LC-MS/MS analysis; format: ADME, organism-based; conditions: in vivo
[13] = AUC (0 to t) in Beagle dog at 5 mg/kg, po measured upto 24 hrs by LC-MS/MS analysis; format: ADME, organism-based, Canis lupus familiaris; set-up: dose 5 mg/kg, time < 24 hrs, route po; conditions: in vivo
[14] = Half life in Beagle dog at 5 mg/kg, po measured upto 24 hrs by LC-MS/MS analysis; format: ADME, organism-based, Canis lupus familiaris; conditions: in vivo
[15] = Ratio of drug concentration in brain to plasma in Sprague-Dawley rat at 10 mg/kg, ip measured at 15 min by LC-MS/MS analysis; format: ADME, organism-based; conditions: read-out: BPR
[16] = Drug concentration in Sprague-Dawley rat plasma at 10 mg/kg, ip measured at 15 min by LC/MS-MS analysis; format: ADME, organism-based
[17] = Cmax in Beagle dog at 1 mg/kg, iv measured upto 24 hrs by LC-MS/MS analysis; format: ADME, organism-based, Canis lupus familiaris; set-up: dose 1 mg/kg, time < 24 hrs, route iv; conditions: in vivo
[18] = Drug concentration in Sprague-Dawley rat plasma at 10 mg/kg, ip measured at 60 min by LC/MS-MS analysis; format: ADME, organism-based
[19] = Clearance in Sprague-Dawley rat at 1 mg/kg, iv measured upto 24 hrs by LC-MS/MS analysis; format: ADME, organism-based; conditions: in vivo; for CL: iv, 1 mg/kg, 24 h
[20] = Volume of distribution at steady state in Beagle dog at 1 mg/kg, iv measured upto 24 hrs by LC-MS/MS analysis; format: ADME, organism-based, Canis lupus familiaris; conditions: in vivo, read-out: Vdss
[21] = Ratio of drug concentration in brain to plasma in Sprague-Dawley rat at 10 mg/kg, ip measured at 120 min by LC-MS/MS analysis; format: ADME, organism-based; conditions: read-out: BPR
[22] = Oral bioavailability in Sprague-Dawley rat at 5 mg/kg measured upto 24 hrs by LC-MS/MS analysis; format: ADME, organism-based; conditions: in vivo
[23] = Half life in Sprague-Dawley rat at 1 mg/kg, iv measured upto 24 hrs by LC-MS/MS analysis; format: ADME, organism-based; conditions: in vivo
[24] = Drug concentration in Sprague-Dawley rat brain at 10 mg/kg, ip measured at 60 min by LC/MS-MS analysis; format: ADME, organism-based; conditions: read-out: Ct
[25] = Drug concentration in Sprague-Dawley rat plasma at 10 mg/kg, ip measured at 120 min by LC/MS-MS analysis; format: ADME, organism-based
[26] = Drug concentration in Sprague-Dawley rat brain at 10 mg/kg, ip measured at 120 min by LC/MS-MS analysis; format: ADME, organism-based; conditions: read-out: Ct
[27] = Cmax in Beagle dog at 5 mg/kg, po measured upto 24 hrs by LC-MS/MS analysis; format: ADME, organism-based, Canis lupus familiaris; set-up: time < 24 hrs, dose 5 mg/kg, route po; conditions: in vivo
[28] = AUC (0 to t) in Sprague-Dawley rat at 2.5 mg/kg, po measured upto 24 hrs by LC-MS/MS analysis; format: ADME, organism-based; set-up: dose 2.5 mg/kg, time < 24 hrs, route po; conditions: in vivo
[29] = Half life in Beagle dog at 1 mg/kg, iv measured upto 24 hrs by LC-MS/MS analysis; format: ADME, organism-based, Canis lupus familiaris; conditions: in vivo
[30] = Cmax in Sprague-Dawley rat at 1 mg/kg, iv measured upto 24 hrs by LC-MS/MS analysis; format: ADME, organism-based; set-up: time < 24 hrs, dose 1 mg/kg, route iv; conditions: in vivo
[31] = Clearance in Beagle dog at 1 mg/kg, iv measured upto 24 hrs by LC-MS/MS analysis; format: ADME, organism-based, Canis lupus familiaris; conditions: in vivo
Rattus norvegicus [32] = test: Antidepressant activity in ip dosed Sprague-Dawley rat assessed as reduction in immobility time measured after 15 mins by forced swim test; format: functional, organism-based; conditions: dose 3-10 mg/kg
Hypothalamus [33] = test: Inhibition of PCA-induced serotonin depletion in Sprague-Dawley rat hypothalamus assessed as recovery of 5-HT concentration at 1 mg/kg, ip by HPLC analysis; format: functional, organism-based
Rattus norvegicus [34] = test: Antidepressant activity in Sprague-Dawley rat assessed as reduction in immobility time at 10 mg/kg ip measured after 15 mins by forced swim test; format: functional; conditions: 0.25 h
[35] = Oral bioavailability in human at 2.5 to […]; format: ADME, organism-based; conditions: in vivo, dose lower 2.5 mg/kg

Sodium-dependent serotonin transporter, sequence (P31645 whole entry): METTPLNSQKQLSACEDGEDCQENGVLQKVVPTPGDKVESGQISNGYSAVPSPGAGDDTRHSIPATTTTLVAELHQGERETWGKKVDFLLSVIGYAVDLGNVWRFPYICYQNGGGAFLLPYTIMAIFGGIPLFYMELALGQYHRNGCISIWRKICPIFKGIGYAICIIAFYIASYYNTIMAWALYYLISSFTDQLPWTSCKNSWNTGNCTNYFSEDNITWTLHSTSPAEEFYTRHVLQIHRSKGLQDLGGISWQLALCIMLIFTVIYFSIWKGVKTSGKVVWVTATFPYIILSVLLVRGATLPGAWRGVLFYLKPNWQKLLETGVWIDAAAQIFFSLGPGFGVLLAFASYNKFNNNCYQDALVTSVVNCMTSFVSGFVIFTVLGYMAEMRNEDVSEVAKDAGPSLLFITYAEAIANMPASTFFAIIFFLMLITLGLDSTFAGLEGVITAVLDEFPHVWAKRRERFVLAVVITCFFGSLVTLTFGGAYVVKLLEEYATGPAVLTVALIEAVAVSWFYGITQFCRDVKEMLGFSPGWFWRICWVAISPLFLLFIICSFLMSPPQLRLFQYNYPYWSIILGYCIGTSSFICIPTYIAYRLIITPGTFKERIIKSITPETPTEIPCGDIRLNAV

Compound | IC50 [1] | bioavailability [4] | AUCt [6] | Cmax [7] | Vd [10] | half-life [12] | AUC(0-t) at 24 h [13] | half-life [14] | Cmax [17] | Vd [20] | bioavailability [22] | half-life [23] | Cmax [27] | AUC(0-t) at 24 h [28] | half-life [29] | AUCt [3] | CL [19] | Cmax [30] | CL [31] | other results
COc1cc(F)ccc1-c1cnc(N2CCN(CCCCc3c[nH]c4ccc(C#N)cc34)CC2)nc1 | < 2000 pM | – | – | – | – | – | – | – | – | – | – | – | – | – | – | – | – | – | – | –
N#Cc1ccc2[nH]cc(CCCCN3CCN(c4ccc5oc(C(N)=O)cc5c4)CC3)c2c1 [VILAZODONE] | – | 47.5% | 791 ng·h/mL | 173 ng/mL | 3.74 L/kg | 2.9 h | 2020 ng·h/mL | 2.15 h | 488 ng/mL | 2.14 L/kg | 52.5% | 1.45 h | 454 ng/mL | 443 ng·h/mL | 1.32 h | – | – | – | – | concentration at 0.25 h [2]: 190 ng/g; AUC(0-t) at 24 h ([3]; Sprague-Dawley): 409 ng·h/mL; Kp at 1 h [5]: 0.46; Activity (Hypothalamus [8]): 400 ng/g; Time (Rattus norvegicus [9]): 100 s; Activity (Hypothalamus [11]): Active; Kp at 0.25 h [15]: 0.56; concentration at 0.25 h [16]: 1330 ng/mL; concentration at 1 h [18]: 1330 ng/mL; clearance ([19]; Sprague-Dawley): 40.2 mL/min/kg; Kp at 2 h [21]: 0.53; concentration at 1 h [24]: 606 ng/g; concentration at 2 h [25]: 861 ng/mL; concentration at 2 h [26]: 457 ng/g
N#Cc1ccc2[nH]cc(CCCCN3CCN(c4ncc(-c5ccc(Cl)cc5)cn4)CC3)c2c1 | 320 pM | 52.6% | 2840 ng·h/mL | 207 ng/mL | 5.46 L/kg | 9.73 h | 6800 ng·h/mL | 15.7 h | 536 ng/mL | 5.52 L/kg | 47.8% | 9.52 h | 820 ng/mL | 2950 ng·h/mL | 20.8 h | 1870 ng·h/mL | 125 mL/min/kg | 444 ng/mL | 61 mL/min/kg | –
COc1ccccc1-c1cnc(N2CCN(CCCCc3c[nH]c4ccc(C#N)cc34)CC2)nc1 | < 2000 pM | – | – | – | – | – | – | – | – | – | – | – | – | – | – | – | – | – | – | –
N#Cc1ccc2[nH]cc(CCCCN3CCN(c4ncc(-c5ccc(F)cc5)cn4)CC3)c2c1 | < 2000 pM | – | – | – | – | – | – | – | – | – | – | – | – | – | – | – | – | – | – | –
N#Cc1ccc2[nH]cc(CCCCN3CCN(c4ncc(-c5ccc(F)cc5F)cn4)CC3)c2c1 | 580 pM | 83.3% | 2820 ng·h/mL | 180 ng/mL | 6.41 L/kg | 7.28 h | 7540 ng·h/mL | 16.4 h | 520 ng/mL | 3.4 L/kg | 53.5% | 7.53 h | 794 ng/mL | 2790 ng·h/mL | 4.39 h | 1340 ng·h/mL | 193 mL/min/kg | 193 ng/mL | 85.7 mL/min/kg | concentration at 0.25 h [2]: 459 ng/g; Kp at 1 h [5]: 3.45; Activity (Rattus norvegicus [32]): Dose-Dependent Effect; Activity (Hypothalamus [33]): Active; Activity (Hypothalamus [8]): 500 ng/g; Time (Rattus norvegicus [34]): <100 s; Kp at 0.25 h [15]: 1.82; concentration at 0.25 h [16]: 253 ng/mL; concentration at 1 h [18]: 651 ng/mL; Kp at 2 h [21]: 3.17; concentration at 1 h [24]: 2240 ng/g; concentration at 2 h [25]: 935 ng/mL; concentration at 2 h [26]: 2960 ng/g
N#Cc1ccc2[nH]cc(CCCCN3CCN(c4ncc(-c5ccc(C(N)=O)cc5)cn4)CC3)c2c1 | < 2000 pM | – | – | – | – | – | – | – | – | – | – | – | – | – | – | – | – | – | – | –
N#Cc1ccc2[nH]cc(CCCCN3CCN(c4ncc(-c5cccc(C(N)=O)c5)cn4)CC3)c2c1 | 350 pM | 39.2% | 2330 ng·h/mL | 241 ng/mL | 2.33 L/kg | 1.95 h | 4310 ng·h/mL | 4.46 h | 1100 ng/mL | 2.13 L/kg | 37.2% | 1.59 h | 662 ng/mL | 706 ng·h/mL | 4.68 h | 722 ng·h/mL | 382 mL/min/kg | 400 ng/mL | 118 mL/min/kg | –
Cc1ccc(Sc2ccccc2N2CCNCC2)c(C)c1 [VORTIOXETINE] | – | – | – | – | – | – | – | – | – | – | – | – | – | – | – | – | – | – | – | bioavailability [35]: 75%
